Reference: patent publication US4921850A, “3-propenylcephem derivative” (Eisai Co., Ltd., priority 1986, dated 1990)
Values after ≈ are worked out from the molar mass of the structure shown. Read-outs that look alike come from different tables or passages of the source.

Tests used:
Assay in all cases: Anti-bacterial activity (MIC), agar dilution
Format in all cases: cell-based
Escher. coli NIHJ = settings: Escher. coli NIHJ, agar dilution, about 10^6 CFU/ml, 18 hours, 37° C.
How it was run: (§1)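 Agar dilution; MH broth overnight cultures → ~10^6 CFU/ml; spotted on MH agar with twofold serial drug dilutions; 18 h, 37° C; MIC in μg/ml.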

Kleb. pneumoniae EK-6 = settings: Kleb. pneumoniae EK-6, agar dilution, about 10^6 CFU/ml, 18 hours, 37° C.
How it was run: as §1

[1] = system: Morganella morganii EP-14; settings: about 10^6 CFU/ml, 37° C.
How it was run: as §1

Pseud. aeruginosa EP-01 = settings: Pseud. aeruginosa EP-01, agar dilution, about 10^6 CFU/ml, 18 hours, 37° C.
How it was run: as §1

Ser. marcescens ES-75 = settings: Ser. marcescens ES-75, agar dilution, about 10^6 CFU/ml, 18 hours, 37° C.
How it was run: as §1

Staph. aureus 209-P = settings: Staph. aureus 209-P, agar dilution, about 10^6 CFU/ml, 18 hours, 37° C.
How it was run: as §1

[2] = Escherichia coli, 18 h, read-out: MIC
[3] = Klebsiella pneumoniae, EK6, 18 h, read-out: MIC
[4] = Morganella morganii, EP14, 18 h, read-out: MIC
[5] = Pseudomonas aeruginosa, EP01, 18 h, read-out: MIC
[6] = Serratia marcescens, ES75, 18 h, read-out: MIC
[7] = Staphylococcus aureus, 209P, 18 h, read-out: MIC

SMILES	MIC (Escher. coli NIHJ; [2])	MIC (Kleb. pneumoniae EK-6; [3])	MIC [1, 4]	MIC (Pseud. aeruginosa EP-01; [5])	MIC (Ser. marcescens ES-75; [6])	MIC (Staph. aureus 209-P; [7])	MIC (Escher. coli NIHJ)	MIC (Kleb. pneumoniae EK-6)	MIC ([1]; 18 hours)	MIC (Pseud. aeruginosa EP-01)	MIC (Ser. marcescens ES-75)	MIC (Staph. aureus 209-P)
CC[N+](C)(C/C=C/C1=C(C(=O)[O-])N2C(=O)[C@@H](NC(=O)/C(=N\OCF)c3nsc(N)n3)[C@H]2SC1)CCO (stereo partly drawn) [Example 44]	0.05 µg/mL (≈ 0.092 µM)	≤ 0.025 µg/mL	0.05 µg/mL (≈ 0.092 µM)	1.56 µg/mL (≈ 2.87 µM)	0.1 µg/mL (≈ 0.184 µM)	0.4 µg/mL (≈ 0.736 µM)	–	–	–	–	–	–
CC[N+](C)(CC#N)C/C=C/C1=C(C(=O)[O-])N2C(=O)[C@@H](NC(=O)/C(=N\OCF)c3nsc(N)n3)[C@H]2SC1 (stereo partly drawn) [Example 45]	≤ 0.025 µg/mL	≤ 0.025 µg/mL	≤ 0.025 µg/mL	0.8 µg/mL (≈ 1.49 µM)	0.1 µg/mL (≈ 0.186 µM)	0.4 µg/mL (≈ 0.743 µM)	–	–	–	–	–	–
CC(=O)NCC[N+](C/C=C/C1=C(C(=O)[O-])N2C(=O)[C@@H](NC(=O)/C(=N\OCF)c3nsc(N)n3)[C@H]2SC1)(CCO)CCO [Example 51]	0.05 µg/mL (≈ 0.0793 µM)	0.05 µg/mL (≈ 0.0793 µM)	0.05 µg/mL (≈ 0.0793 µM)	1.56 µg/mL (≈ 2.47 µM)	0.05 µg/mL (≈ 0.0793 µM)	0.4 µg/mL (≈ 0.634 µM)	–	–	–	–	–	–
C[N+](C)(C/C=C/C1=C(C(=O)[O-])N2C(=O)[C@@H](NC(=O)/C(=N\OCF)c3nsc(N)n3)[C@H]2SC1)NC(N)=O [Example 53]	0.05 µg/mL (≈ 0.092 µM)	0.05 µg/mL (≈ 0.092 µM)	0.05 µg/mL (≈ 0.092 µM)	0.8 µg/mL (≈ 1.47 µM)	0.1 µg/mL (≈ 0.184 µM)	0.8 µg/mL (≈ 1.47 µM)	–	–	–	–	–	–
CNC(=O)C[N+](C)(C)C/C=C/C1=C(C(=O)[O-])N2C(=O)[C@@H](NC(=O)/C(=N\OCF)c3nsc(N)n3)[C@H]2SC1 [Example 55]	≤ 0.025 µg/mL	≤ 0.025 µg/mL	≤ 0.025 µg/mL	0.4 µg/mL (≈ 0.719 µM)	≤ 0.025 µg/mL	0.2 µg/mL (≈ 0.359 µM)	–	–	–	–	–	–
CN(C)C(=O)C[N+](C)(C)C/C=C/C1=C(C(=O)[O-])N2C(=O)[C@@H](NC(=O)/C(=N\OCF)c3nsc(N)n3)[C@H]2SC1 [Example 56]	0.05 µg/mL (≈ 0.0876 µM)	0.05 µg/mL (≈ 0.0876 µM)	0.05 µg/mL (≈ 0.0876 µM)	1.56 µg/mL (≈ 2.73 µM)	0.1 µg/mL (≈ 0.175 µM)	0.4 µg/mL (≈ 0.701 µM)	–	–	–	–	–	–
CNC(=O)[C@H](C)[N+](C)(C)C/C=C/C1=C(C(=O)[O-])N2C(=O)[C@@H](NC(=O)/C(=N\OCF)c3nsc(N)n3)[C@H]2SC1 [Example 58]	≤ 0.025 µg/mL	0.05 µg/mL (≈ 0.0876 µM)	0.05 µg/mL (≈ 0.0876 µM)	1.56 µg/mL (≈ 2.73 µM)	0.05 µg/mL (≈ 0.0876 µM)	0.2 µg/mL (≈ 0.35 µM)	–	–	–	–	–	–
CNC(=O)[C@@H](C)[N+](C)(C)C/C=C/C1=C(C(=O)[O-])N2C(=O)[C@@H](NC(=O)/C(=N\OCF)c3nsc(N)n3)[C@H]2SC1 [Example 59]	≤ 0.025 µg/mL	≤ 0.025 µg/mL	≤ 0.025 µg/mL	1.56 µg/mL (≈ 2.73 µM)	≤ 0.025 µg/mL	0.4 µg/mL (≈ 0.701 µM)	–	–	–	–	–	–
C[N+](C)(C/C=C/C1=C(C(=O)[O-])N2C(=O)[C@@H](NC(=O)/C(=N\OCF)c3nsc(N)n3)[C@H]2SC1)[C@@H](CC(N)=O)C(N)=O [Example 60]	≤ 0.025 µg/mL	0.05 µg/mL (≈ 0.0834 µM)	≤ 0.025 µg/mL	1.56 µg/mL (≈ 2.6 µM)	≤ 0.025 µg/mL	0.2 µg/mL (≈ 0.334 µM)	–	–	–	–	–	–
C[N+](C)(C/C=C/C1=C(C(=O)[O-])N2C(=O)[C@@H](NC(=O)/C(=N\OCF)c3nsc(N)n3)[C@H]2SC1)[C@H](CC(N)=O)C(N)=O [Example 61]	0.1 µg/mL (≈ 0.167 µM)	0.05 µg/mL (≈ 0.0834 µM)	0.1 µg/mL (≈ 0.167 µM)	1.56 µg/mL (≈ 2.6 µM)	0.05 µg/mL (≈ 0.0834 µM)	0.4 µg/mL (≈ 0.667 µM)	–	–	–	–	–	–
C[N+](C)(C/C=C/C1=C(C(=O)[O-])N2C(=O)[C@@H](NC(=O)/C(=N\OCF)c3nsc(N)n3)[C@H]2SC1)[C@@H](CO)C(N)=O [Example 62]	≤ 0.025 µg/mL	≤ 0.025 µg/mL	≤ 0.025 µg/mL	0.4 µg/mL (≈ 0.699 µM)	≤ 0.025 µg/mL	0.2 µg/mL (≈ 0.349 µM)	–	–	–	–	–	–
C[N+](C)(C/C=C/C1=C(C(=O)[O-])N2C(=O)[C@@H](NC(=O)/C(=N\OCF)c3nsc(N)n3)[C@H]2SC1)[C@H](CO)C(=O)NCO [Example 63]	≤ 0.025 µg/mL	0.05 µg/mL (≈ 0.083 µM)	≤ 0.025 µg/mL	0.8 µg/mL (≈ 1.33 µM)	≤ 0.025 µg/mL	0.4 µg/mL (≈ 0.664 µM)	–	–	–	–	–	–
C[N+](C)(C/C=C/C1=C(C(=O)[O-])N2C(=O)[C@@H](NC(=O)/C(=N\OCF)c3nsc(N)n3)[C@H]2SC1)CCO [Example 64]	≤ 0.025 µg/mL	≤ 0.025 µg/mL	≤ 0.025 µg/mL	0.8 µg/mL (≈ 1.51 µM)	0.1 µg/mL (≈ 0.189 µM)	0.2 µg/mL (≈ 0.378 µM)	–	–	–	–	–	–
CC(O)C[N+](C)(C)CC=CC1=C(C(=O)[O-])N2C(=O)C(NC(=O)C(=NOCF)c3nsc(N)n3)C2SC1 (stereo not drawn) [Example 65]	≤ 0.025 µg/mL	≤ 0.025 µg/mL	≤ 0.025 µg/mL	0.8 µg/mL (≈ 1.47 µM)	0.05 µg/mL (≈ 0.092 µM)	0.4 µg/mL (≈ 0.736 µM)	–	–	–	–	–	–
CC(O)C[N+](C)(C)CC=CC1=C(C(=O)[O-])N2C(=O)C(NC(=O)C(=NOCF)c3nsc(N)n3)C2SC1 (stereo not drawn) [Example 66]	–	–	–	–	–	–	≤ 0.025 µg/mL	≤ 0.025 µg/mL	≤ 0.025 µg/mL	0.8 µg/mL (≈ 1.47 µM)	≤ 0.025 µg/mL	0.4 µg/mL (≈ 0.736 µM)
C[C@H](CO)[N+](C)(C)C/C=C/C1=C(C(=O)[O-])N2C(=O)[C@@H](NC(=O)/C(=N\OCF)c3nsc(N)n3)[C@H]2SC1 [Example 68]	≤ 0.025 µg/mL	≤ 0.025 µg/mL	≤ 0.025 µg/mL	0.8 µg/mL (≈ 1.47 µM)	≤ 0.025 µg/mL	0.2 µg/mL (≈ 0.368 µM)	–	–	–	–	–	–
CC(C)(CO)[N+](C)(C)C/C=C/C1=C(C(=O)[O-])N2C(=O)[C@@H](NC(=O)/C(=N\OCF)c3nsc(N)n3)[C@H]2SC1 [Example 69]	≤ 0.025 µg/mL	≤ 0.025 µg/mL	≤ 0.025 µg/mL	0.8 µg/mL (≈ 1.43 µM)	0.05 µg/mL (≈ 0.0897 µM)	0.2 µg/mL (≈ 0.359 µM)	–	–	–	–	–	–
C[N+](C)(C/C=C/C1=C(C(=O)[O-])N2C(=O)[C@@H](NC(=O)/C(=N\OCF)c3nsc(N)n3)[C@H]2SC1)C(CO)(CO)CO [Example 70]	≤ 0.025 µg/mL	≤ 0.025 µg/mL	≤ 0.025 µg/mL	0.8 µg/mL (≈ 1.36 µM)	0.1 µg/mL (≈ 0.17 µM)	0.1 µg/mL (≈ 0.17 µM)	–	–	–	–	–	–
C[N+](C)(C/C=C/C1=C(C(=O)[O-])N2C(=O)[C@@H](NC(=O)/C(=N\OCF)c3nsc(N)n3)[C@H]2SC1)CC(=O)NO [Example 72]	≤ 0.025 µg/mL	≤ 0.025 µg/mL	≤ 0.025 µg/mL	0.8 µg/mL (≈ 1.43 µM)	≤ 0.025 µg/mL	0.4 µg/mL (≈ 0.716 µM)	–	–	–	–	–	–
